Drawing on PubChem BioAssay (NCI), this text covers TGI and GI50 for six compounds.

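Where inhibition never reached the appropriate level, the endpoint shown equals the highest concentration tested. Otherwise, values were interpolated linearly from a five-concentration, 48-hour dose response in 96-well plates. Here, GI50 denotes the concentration required for 50% inhibition of growth. TGI marks complete inhibition of growth.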

Test systems include OVCAR-4 ovarian; MALME-3M melanoma; NCI-H226 lung; HOP-62 NSCLC; RPMI-8226 leukemia; 786-0 renal; HL-60(TB) leukemia; HCC-2998 colon; U251 CNS; HCT-15 colon.
What all share (assay): inhibition of tumour cell growth, NCI panel, 48 h

Consider `Cc1ccc(Cl)c(NC(=O)C(=O)C(C(=O)c2ccncc2)C2OC(=O)c3ccccc32)c1` (stereo not given), for which the TGI in the assay with OVCAR-4 ovarian, with MALME-3M melanoma, in the assay on NCI-H226 lung, with HOP-62 NSCLC, in the assay with RPMI-8226 leukemia and in the assay on 786-0 renal was above 100 µM in each case. Also, the TGI in the assay with HL-60(TB) leukemia, in the assay on HCC-2998 colon, in the assay with U251 CNS and with HCT-15 colon was above 100 µM each time.

In the case of `CSc1nc2sc3cc(Cl)ccc3n2c(=N)c1C#N`, the GI50 with OVCAR-4 ovarian is 8.9 µM; in the assay with MALME-3M melanoma, 14.7 µM; with NCI-H226 lung, 12.8 µM; with HOP-62 NSCLC, 45.4 µM; in the assay with RPMI-8226 leukemia it was above 80.6 µM; in the assay on 786-0 renal it was 6.15 µM. The GI50 is 7.71 µM in the assay on HL-60(TB) leukemia, 18.5 µM with HCC-2998 colon, above 55 µM in the assay on U251 CNS and above 100 µM with HCT-15 colon. In addition, the TGI in the assay on OVCAR-4 ovarian was above 100 µM; in the assay with MALME-3M melanoma, above 100 µM; with NCI-H226 lung, above 100 µM; with HOP-62 NSCLC it was above 100 µM; in the assay on RPMI-8226 leukemia, above 100 µM; in the assay with 786-0 renal, 24 µM. Also, the TGI with HL-60(TB) leukemia, in the assay with HCC-2998 colon, in the assay on U251 CNS and in the assay with HCT-15 colon was above 100 µM in each case.

With `N#CCCN(c1ccc(-c2nnc(NC(=O)CNNC(=O)CC(=O)Nc3ccccc3)s2)cc1)S(=O)(=O)c1ccccc1`, the TGI with OVCAR-4 ovarian, in the assay with MALME-3M melanoma, with NCI-H226 lung, with HOP-62 NSCLC, in the assay with RPMI-8226 leukemia and with 786-0 renal was above 100 µM in each case. For the same compound, the TGI in the assay with HL-60(TB) leukemia, with HCC-2998 colon, in the assay with U251 CNS and with HCT-15 colon was above 100 µM throughout.

Consider `COC(=O)C1=C(CO)C2C=CC1C2` (stereo not given), for which the TGI with OVCAR-4 ovarian, with MALME-3M melanoma, in the assay with NCI-H226 lung, in the assay on HOP-62 NSCLC, with RPMI-8226 leukemia and with 786-0 renal was above 100 µM throughout. Moreover, the TGI in the assay on HL-60(TB) leukemia, with HCC-2998 colon, in the assay with U251 CNS and in the assay on HCT-15 colon was above 100 µM throughout.

With `Cc1ccc(S(=O)(=O)N2CCc3ccc(O)c4c3C2Cc2cc(Cl)ccc2-4)cc1` (stereo not given), the GI50 is 1.53 µM with OVCAR-4 ovarian; 2.59 µM in the assay on MALME-3M melanoma; 2.63 µM in the assay on NCI-H226 lung; 1.56 µM with HOP-62 NSCLC; 0.875 µM in the assay with RPMI-8226 leukemia; 2.3 µM with 786-0 renal. The GI50 is 1.05 µM in the assay on HL-60(TB) leukemia, 1.65 µM in the assay with HCC-2998 colon, 0.972 µM in the assay on U251 CNS and 1.35 µM in the assay with HCT-15 colon. The TGI worked out at 7.51 µM with OVCAR-4 ovarian; 9.62 µM in the assay with MALME-3M melanoma; 8.4 µM in the assay with NCI-H226 lung; 5.65 µM in the assay with HOP-62 NSCLC; 2.6 µM in the assay on RPMI-8226 leukemia; 9.59 µM in the assay on 786-0 renal. The TGI stood at 4.06 µM in the assay with HL-60(TB) leukemia, 5.37 µM in the assay on HCC-2998 colon, 3.77 µM in the assay on U251 CNS and 6.97 µM with HCT-15 colon.

Turning to `COc1ccc(-c2nc(-c3nc4ccc(OC)cc4[nH]3)cc3c2[nH]c2ccccc23)cc1`, the GI50 in the assay on OVCAR-4 ovarian is above 100 µM; in the assay with MALME-3M melanoma it was 27.5 µM; in the assay on NCI-H226 lung it was 4.37 µM; with HOP-62 NSCLC, 4.24 µM; with RPMI-8226 leukemia, 0.363 µM; with 786-0 renal it was 4.62 µM. Moreover, the GI50 with HL-60(TB) leukemia is 4.08 µM; in the assay with HCC-2998 colon it was 6.57 µM; with U251 CNS it was 2.89 µM; in the assay on HCT-15 colon it was 2.88 µM. In addition, the TGI in the assay with OVCAR-4 ovarian was above 100 µM; in the assay on MALME-3M melanoma it was above 100 µM; with NCI-H226 lung, above 100 µM; in the assay with HOP-62 NSCLC it was above 100 µM; in the assay on RPMI-8226 leukemia, 2.86 µM; with 786-0 renal, above 100 µM. For the same compound, the TGI in the assay with HL-60(TB) leukemia, in the assay with HCC-2998 colon, in the assay with U251 CNS and in the assay on HCT-15 colon was above 100 µM in each case.
